Data on one molecule can be found in PMC5835321 (Cancer research, 2017).

The assay deals with T1, PPARG (PPAR-gamma) (Homo sapiens, UniProt P37231).
T1 sequence (P37231 231-505 limits assumed): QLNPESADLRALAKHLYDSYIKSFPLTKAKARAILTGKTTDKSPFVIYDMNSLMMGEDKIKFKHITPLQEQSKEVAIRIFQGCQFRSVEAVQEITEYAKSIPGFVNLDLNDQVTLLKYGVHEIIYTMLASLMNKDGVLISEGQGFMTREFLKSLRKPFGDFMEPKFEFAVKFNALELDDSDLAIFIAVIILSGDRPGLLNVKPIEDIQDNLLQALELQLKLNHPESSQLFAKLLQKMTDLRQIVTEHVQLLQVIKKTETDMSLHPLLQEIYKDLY

As for `CN(CCOc1ccc(C[C@H](Nc2ccccc2C(=O)c2ccccc2)C(=O)O)cc1)c1ccccn1` [GW1929], the “TR-FRET coactivator recruitment and corepressor release; full agonist” value was “Full agonists, such as rosiglitazone, tesaglitazar, GW1929, and pioglitazone, enhanced interaction between PPARG and MED1 coactivator peptide”.
